Assay results: publication PMC8470881, “Membrane Interactions of Latarcins: Antimicrobial Peptides from Spider Venom” (International Journal of Molecular Sciences, 2021)
Where “and” joins values, the source holds several entries; their conditions need not be identical. Equal values may be shown once.

Assays:
[1] = ANTS/DPX fluorescence vesicle leakage assay; conditions: vesicle leakage of ANTS/DPX in POPC/POPG (1/1) LUVs, P/L = 1:50, 100 µM lipid, 10 min, 30 °C, pH 7.5
Experimental: The ability of the peptides to induce leakage in large unilamellar vesicles (≈120 nm diameter) of POPC/POPG (1/1) was studied using a fluorescence assay using ANTS/DPX, as described previously.
For the leakage experiments, the buffer in which the vesicles were prepared contained the fluorophore ANTS (12.5 mM), the quencher DPX (45 mM), 50 mM NaCl, and 10 mM HEPES (pH 7.5). Liposomes were prepared by co-dissolving POPC/POPG 1/1 (mol/mol) lipids in CHCl3/MeOH (3/1 v/v), together with 10^−2 mol% Rhod-PE, by which the lipid loss during vesicle preparation (extrusion and gel filtration, see below) could be quantified. The peptide-to-lipid ratio (P/L) is given in mol/mol. The lipid mixture was dried under N2(g) and dried under vacuum for 2–4 h. The obtained thin film was then re-suspended in the buffer, which contained the fluorophore and the quencher, by vigorous vortexing, followed by 10 freeze–thaw cycles. Large unilamellar vesicles (LUV) were obtained by 41-fold extrusion (Avanti Mini Extruder; Avanti Polar Lipids, Alabaster, AL, USA) of the liposomes through a Nuclepore polycarbonate membrane (pore size 100 nm, Whatman-GE Healthcare Europe, Freiburg, Germany) at a temperature 20 °C above the lipid phase transition. […]
The leakage of entrapped ANTS was monitored by fluorescence dequenching of ANTS [18]. Fluorescence measurements were performed in a thermostated cuvette with constant stirring at 30 °C in the elution buffer used for gel filtration on a FluoroMax2 spectrofluorimeter (HORIBA Jobin Yvon, Unterhaching, Germany) by setting the ANTS excitation wavelength to 355 nm and its emission wavelength to 510 nm. Peptide stock solutions in water were prepared, and the peptide concentration was calculated from the weighed amount. […] The fluorescence signal was followed for 10 minutes, and after that time, Triton X-100 was added to completely disrupt the vesicles. The level of 0% leakage corresponded to the fluorescence of the vesicles immediately after their addition, while 100% leakage was the fluorescence value obtained after the addition of Triton X-100.
The synergy of the peptides towards vesicle leakage was investigated by pair-wise combinations of latarcins. The leakage was measured for each peptide alone at P/L = 1/100 and for peptide combinations at P/P/L = 1/1/100. The synergy factor, SF, is calculated according to:SF = L(P1 + P2)/[L(P1) + L(P2)].(1)
Here, L(P1) is the leakage of peptide 1 alone, L(P2) is the leakage of peptide 2 alone, and L(P1 + P2) is the leakage for the mixture of the peptides. […] The SF was determined separately for each batch of samples, and then the individual SF values were averaged.

[2] = Oriented circular dichroism (helix alignment in membrane); format: physicochemical; conditions: DMPC/DMPG (7/3), P/L = 1:100, oriented hydrated bilayers, 30 °C
Description: This is the same lipid composition and peptide-to-lipid ratio as was used in conventional CD above (see Figure 2), but in contrast to the vesicular samples containing excess water, the oriented membranes for OCD are just about saturated with water.
The sign and intensity of the 208 nm band provide a characteristic signature of the helix tilt angle in the membrane [19]. For a helical peptide that lies flat on the bilayer surface, this band is the most intense.
To prepare oriented CD (OCD) samples, latarcins depending on their solubility were dissolved either in pure MeOH or CHCl3/MeOH 1/1 (v/v) and thoroughly mixed with appropriate aliquots of DMPC/DMPG solutions (7/3 molar ratio) in the same solvent. Each co-dissolved mixture with a peptide-to-lipid molar ratio of 1/100 was deposited on a quartz glass plate using a gas-tight syringe. To achieve a spot size of 12.5 mm on the 20 mm diameter plates (Suprasil QS, Hellma Optik GmbH, Jena, Germany), a volume of ~55–60 µL was used. The organic solvents were evaporated in a gentle stream of air until the sample appeared dry. The amounts of deposited lipid and peptide on the plate were always 0.29 μmole and 2.9 nmole, respectively. The peptide-lipid-film was further dried under reduced pressure for at least 3 h. Afterwards, each plate with the dried sample was fixed and sealed by a polymer O-ring in a cylindrical sample holder. The plate with the sample and a second window plate without the sample formed a compartment for controlled hydration. The holder was assembled in a custom-built hydration cell. In the inner compartment of the sample holder, the peptide-lipid film was hydrated for about 15 h at 30 °C and 97% relative humidity via the gas phase by a saturated K2SO4 solution contained in an adjacent cavity of the hydration cell. During hydration, the lipids spontaneously align as lipid bilayers that are macroscopically oriented perpendicular to the glass surface. For the measurement, the holder was transferred to an OCD sample cell that had been developed and built in-house [20]. It is computer-controlled and can be integrated into a Jasco spectropolarimeter as an accessory. The optical path runs along the cylindrical axis of the cell, i.e., normal to the quartz glass plate surface carrying the oriented lipid film. To reduce possible spectral artifacts caused by linear dichroism (LD) or linear birefringence (LB) due to imperfections in the sample, strain in the quartz glass or imperfect alignment of the windows, the OCD spectra were recorded in steps of 45° by rotation of the cell around the beam axis [19, 20]. At each angle, two scans were recorded from 260–185 nm as an average, using a scan rate of 20 nm min^−1, 4 s response time, and 1 nm bandwidth.

[3] = Solid-state 15N-NMR (helix alignment in membrane); format: physicochemical; conditions: DMPC/DMPG (7/3); for NMR: orientational state of the helix: P/L = 1:100, oriented samples, solid-state 15N-NMR, 308 K
Experimental: While OCD provides a rough picture of the peptide alignment, the helix tilt angle can be measured rather precisely by solid-state NMR using the same type of oriented membrane sample. […] If the peptides are not helical, then the orientation cannot be determined from these ^15N-NMR spectra (which is why CD/OCD need to be performed first), but other information may be available. Oriented NMR samples were prepared at a P/L of 1/100 in DMPC/DMPG (7/3), as for CD/OCD. The ^15N-NMR spectra of all latarcins are summarized in Figure 7, along with the corresponding ^31P-NMR spectra of the phospholipid component. […] This conclusion is supported by the vesicle leakage data above.
Ltc2a, with a chemical shift of 131 ppm, on the other hand, is distinctly tilted in the membrane, as was also observed in the OCD experiments. […] Ltc3a, with a chemical shift of 93 ppm, is tilted only slightly by 10–20°. […] Given that OCD had shown distinct signs of aggregation into β-sheets, we can conclude that Ltc6a binds to the membrane and perturbs the lipid bilayer, but it is not possible to determine the molecular alignment of Ltc6a when it has most likely formed aggregates.
Macroscopically oriented NMR samples were prepared by co-dissolving appropriate amounts of peptides and lipids (in 300 μL methanol, 100 μL CHCl3, and 10–20 μL Milli-Q water) and spreading them onto 23 thin glass plates of dimensions 9 mm × 7.5 mm × 0.08 mm (Marienfeld Laboratory Glassware, Lauda-Königshofen, Germany). The peptide-to-lipid ratio (P/L) is given in mol/mol. The plates were dried in air for 1 h, followed by drying under vacuum overnight. The plates were stacked and placed into a hydration chamber with 96% relative humidity at 48 °C for 18–24 h before wrapping the stack in parafilm and plastic foil for the NMR measurements. All solid-state NMR measurements were carried out on a Bruker Avance 500 MHz spectrometer (Bruker Biospin, Karlsruhe, Germany) at 308 K, as previously reported. The oriented membrane samples were placed in the flat-coil probe such that the lipid bilayer normal was aligned parallel to the magnetic field. ^31P-NMR was used to check the quality of the lipid orientation in the samples, using a Hahn echo sequence with phase cycling. The 90° pulse length was 3.9 µs, the echo time was 30 µs, and 17 kHz ^1H SPINAL64 decoupling was used. ^1H-^15N cross-polarization experiments using a CP-MOIST pulse sequence were performed using a double-tuned probe with a low-E flat-coil resonator (3 mm × 9 mm cross-section), employing a ^1H and ^15N radiofrequency field strength of 65 kHz during the cross-polarization and 25 kHz ^1H SPINAL16 [41] decoupling during acquisition. A mixing time of 500 μs was used, and 10,000 to 30,000 scans were accumulated. The acquisition time was 10 ms, and the recycle time was 3 s. The ^15N chemical shift was referenced using the ^1H-NMR signal of water in the sample.

Row | Substance | % Leakage [1] | OCD: orientational state of the helix [2] | NMR: orientational state of the helix [3] | helix tilt angle away from the flat surface orientation ([3]; from 15N chemical shift, P/L 1/100)
1 | H-QAFQTFKPDWNKIRYDAMKMQTSLGQMKKRFNL-OH [Ltc6a] | 50% and 46% | Aggregated | Aggregated | –
2 | H-GFFGKMKEYFKKFGASFKRRFANLKKRL-NH2 [Ltc5] | – | Surface | Surface | –
3 | H-SWKSMAKKLKEYMEKLKQRA-NH2 [Ltc3a] | 20% | Slight tilt | Slight tilt | 10–20 °
4 | G E TF D K L K E K L K TFYQ K LV E K A ED L K G D L K A K LS-acid [Ltc7] | 50% and 54% | Surface | Surface | –
5 | H-GLKDKFKSMGEKLKQYIQTWKAKF-NH2 [Ltc4a] | 20% and 22% | – | – | –
